Among the data in PubChem BioAssay AID248 (DTP/NCI, 2004) are T/C values, retold here.

Where “and” joins values, the source holds several entries; their conditions need not be identical. Equal values may be shown once. Inconclusive results and toxic doses are left out.

The subject of the test is L1210 leukemia ip in BDF1 mice, survival T/C. Nature of the test: NCI In Vivo Anticancer Drug Screen. Data for tumor model L1210 Leukemia (intraperitoneal) in B6D2F1 (BDF1) mice. As to conditions: endpoint: mean survival time, higher = longer survival. The method, boiled down:
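Each compound was tested against a transplantable tumor grown in mice. The endpoint was survival, with treated animals benchmarked against vehicle controls as a simple ratio.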

The mark [1] stands for this setting: dose: 100.0 mg/kg/injection, schedule: Q01DX009 (ip), vehicle: Klucel (hydroxypropylcellulose) (HPC).
The mark [2] stands for this setting: dose: 100.0 mg/kg/injection, schedule: Q01DX009 (ip), vehicle: saline with Tween-80.
Where [3] appears, read: dose: 200.0 mg/kg/injection, schedule: Q01DX009 (ip), vehicle: saline with Tween-80.
The mark [4] stands for this setting: dose: 100.0 mg/kg/injection, schedule: Q04DX002 (ip), vehicle: saline with Tween-80.
Where [5] appears, read: dose: 200.0 mg/kg/injection, schedule: Q04DX002 (ip), vehicle: saline with Tween-80.
The mark [6] stands for this setting: dose: 12.5 mg/kg/injection, schedule: Q01DX009 (ip), vehicle: saline.
Where [7] appears, read: dose: 25.0 mg/kg/injection, schedule: Q01DX009 (ip), vehicle: saline.

Regarding `CCNC(Cc1ccccc1)c1ccco1` (stereo not drawn), the T/C (dose: 50.0 mg/kg/injection, schedule: Q01DX009 (ip), vehicle: Klucel (hydroxypropylcellulose) (HPC)) was 109 % of control and the T/C under setting [1] was 104 % of control.
For the molecule `O=[N+]([O-])c1cc(Cl)ccc1N1CCCCC1`, the T/C runs as follows: under setting [2], 97 % of control; under setting [3], 98 % of control; (dose: 400.0 mg/kg/injection, schedule: Q01DX009 (ip), vehicle: saline with Tween-80) 106 % of control.
On to `COc1cc2c(c(OC)c1OC)-c1ccc(O)c(=O)cc1C(N)CC2` (stereo not drawn), for which the T/C by setting is: (dose: 6.25 mg/kg/injection, schedule: Q01DX009 (ip), vehicle: saline with Tween-80) 98 % of control; (dose: 12.5 mg/kg/injection, schedule: Q01DX009 (ip), vehicle: saline with Tween-80) 100 % of control; (dose: 25.0 mg/kg/injection, schedule: Q01DX009 (ip), vehicle: saline with Tween-80) 94 % of control.
For `CC1CN=C(c2ccc(NC(=O)NCCCCCCCCCCCCNC(=O)Nc3ccc(C4=NCC(C)N4)cc3)cc2)N1` (stereo not drawn), the T/C is, setting by setting: (dose: 12.5 mg/kg/injection, schedule: Q01DX Z (ip), vehicle: carboxymethylcellulose (CMC)) 95 % of control; (dose: 125.0 mg/kg/injection, schedule: Q01DX Z (ip), vehicle: carboxymethylcellulose (CMC)) 104 % of control.
For `CC1=CC(C)=NC2NNC(=O)C12` (stereo not drawn), the T/C under setting [4] is 100 % of control; the T/C under setting [5] was 103 % of control; the T/C (dose: 400.0 mg/kg/injection, schedule: Q04DX002 (ip), vehicle: saline with Tween-80) is 96 % of control.
Turning to `Cc1ccc(NC(=O)OCCN(C)C)cc1NC(=O)OCCN(C)C`, the T/C runs as follows: under setting [6], 98 % of control and 97 % of control; under setting [7], 98 % of control; (dose: 50.0 mg/kg/injection, schedule: Q01DX009 (ip), vehicle: saline) 101 % of control and 92 % of control; (dose: 100.0 mg/kg/injection, schedule: Q01DX009 (ip), vehicle: saline) 102 % of control.
Turning to `BrC1C2CC3C(C2)C13` (stereo not drawn), the T/C runs as follows: under setting [1], 104 % of control; (dose: 100.0 mg/kg/injection, schedule: Q04DX003 (ip), vehicle: Klucel (hydroxypropylcellulose) (HPC)) 100 % of control; (dose: 200.0 mg/kg/injection, schedule: Q01DX009 (ip), vehicle: Klucel (hydroxypropylcellulose) (HPC)) 95 % of control; (dose: 200.0 mg/kg/injection, schedule: Q04DX003 (ip), vehicle: Klucel (hydroxypropylcellulose) (HPC)) 95 % of control; (dose: 400.0 mg/kg/injection, schedule: Q01DX009 (ip), vehicle: Klucel (hydroxypropylcellulose) (HPC)) 98 % of control; (dose: 400.0 mg/kg/injection, schedule: Q04DX003 (ip), vehicle: Klucel (hydroxypropylcellulose) (HPC)) 93 % of control.
With `O=S(=O)(O)n1nc2ccccc2c1-c1ccccc1`, the T/C by setting is: under setting [4], 96 % of control; under setting [5], 96 % of control.
With `NC(=S)N/N=C/c1cccn1-c1ccc2ncccc2c1[N+](=O)[O-]`, the T/C is 93 % of control (dose: 25.0 mg/kg/injection, schedule: Q04DX002 (ip), vehicle: Klucel (hydroxypropylcellulose) (HPC)); 93 % of control (dose: 50.0 mg/kg/injection, schedule: Q04DX002 (ip), vehicle: Klucel (hydroxypropylcellulose) (HPC)); 90 % of control (dose: 100.0 mg/kg/injection, schedule: Q04DX002 (ip), vehicle: Klucel (hydroxypropylcellulose) (HPC)).
Regarding `COC(=O)c1cc(S(=O)(=O)c2cc(C(=O)OC)c(O)cc2OC)c(OC)cc1O`, the T/C is, setting by setting: (dose: 100.0 mg/kg/injection, schedule: Q04DX002 (ip), vehicle: carboxymethylcellulose (CMC)) 95 % of control; (dose: 200.0 mg/kg/injection, schedule: Q04DX002 (ip), vehicle: carboxymethylcellulose (CMC)) 95 % of control; (dose: 400.0 mg/kg/injection, schedule: Q04DX002 (ip), vehicle: carboxymethylcellulose (CMC)) 98 % of control.
Take `Cc1cccc(N2CCN(c3ccncc3N)CC2C)c1` (stereo not drawn): the T/C by setting is: (dose: 19.0 mg/kg/injection, schedule: Q01DX009 (ip), vehicle: saline with Tween-80) 102 % of control; (dose: 37.5 mg/kg/injection, schedule: Q04DX003 (ip), vehicle: saline with Tween-80) 94 % of control; (dose: 38.0 mg/kg/injection, schedule: Q01DX009 (ip), vehicle: saline with Tween-80) 91 % of control; (dose: 75.0 mg/kg/injection, schedule: Q01DX009 (ip), vehicle: saline with Tween-80) 89 % of control; (dose: 75.0 mg/kg/injection, schedule: Q04DX003 (ip), vehicle: saline with Tween-80) 94 % of control.
Take `O=C(NC1CCCCC1)c1ccc(Cl)cc1Cl`: the T/C (dose: 50.0 mg/kg/injection, schedule: Q01DX009 (ip), vehicle: saline with Tween-80) is 100 % of control; the T/C under setting [2] is 100 % of control; the T/C under setting [3] is 96 % of control.
With `COP(=O)(OC)c1nc(P(=O)(OC)OC)nc(P(=O)(OC)OC)n1`, the T/C is 98 % of control (dose: 50.0 mg/kg/injection, schedule: Q01DX001 (ip), vehicle: saline); 93 % of control (dose: 100.0 mg/kg/injection, schedule: Q01DX001 (ip), vehicle: saline); 93 % of control (dose: 200.0 mg/kg/injection, schedule: Q01DX001 (ip), vehicle: saline); 93 % of control (dose: 400.0 mg/kg/injection, schedule: Q01DX001 (ip), vehicle: saline).
For `O=S(=O)(O)c1cccc2cccc(N=Nc3ccc(O)cc3)c12`, the T/C (dose: 100.0 mg/kg/injection, schedule: Q01DX001 (ip), vehicle: other) was 94 % of control; the T/C (dose: 200.0 mg/kg/injection, schedule: Q01DX001 (ip), vehicle: other) was 103 % of control; the T/C (dose: 400.0 mg/kg/injection, schedule: Q01DX001 (ip), vehicle: other) was 94 % of control.
For `CCC1(CC)COC(=O)NC1=O`, the T/C is 105 % of control (dose: 1.56 mg/kg/injection, schedule: Q01DX009 (ip), vehicle: saline); 116 % of control (dose: 3.12 mg/kg/injection, schedule: Q01DX009 (ip), vehicle: saline); 103 % of control (dose: 6.25 mg/kg/injection, schedule: Q01DX009 (ip), vehicle: saline); 101 % of control (dose: 6.25 mg/kg/injection, schedule: Q04DX003 (ip), vehicle: saline); 103 % of control under setting [6]; 101 % of control (dose: 12.5 mg/kg/injection, schedule: Q04DX003 (ip), vehicle: saline). Besides, the T/C under setting [7] is 97 % of control and the T/C (dose: 25.0 mg/kg/injection, schedule: Q04DX003 (ip), vehicle: saline) was 87 % of control.
`C=CCOC(=O)C1c2ccccc2Cc2ccccc21`: the T/C was 97 % of control (dose: 100.0 mg/kg/injection, schedule: Q04DX003 (ip), vehicle: saline with Tween-80); 97 % of control (dose: 200.0 mg/kg/injection, schedule: Q04DX003 (ip), vehicle: saline with Tween-80); 95 % of control (dose: 400.0 mg/kg/injection, schedule: Q04DX003 (ip), vehicle: saline with Tween-80).
For `CCOC(=O)CCc1ccc2c(c1)OCO2`, the T/C reads like this: (dose: 100.0 mg/kg/injection, schedule: Q04DX003 (ip), vehicle: saline) 103 % of control; (dose: 200.0 mg/kg/injection, schedule: Q04DX003 (ip), vehicle: saline) 101 % of control; (dose: 400.0 mg/kg/injection, schedule: Q04DX003 (ip), vehicle: saline) 95 % of control.
Consider `CN(C)P(=O)(N(C)C)N1CC1`, for which the T/C is 98 % of control (dose: 0.75 mg/kg/injection, schedule: Q01DX009 (ip), vehicle: saline); 103 % of control (dose: 1.5 mg/kg/injection, schedule: Q01DX009 (ip), vehicle: saline); 101 % of control (dose: 3.7 mg/kg/injection, schedule: Q01DX009 (ip), vehicle: saline); 98 % of control (dose: 3.75 mg/kg/injection, schedule: Q01DX009 (ip), vehicle: saline); 113 % of control and 115 % of control (dose: 7.5 mg/kg/injection, schedule: Q01DX009 (ip), vehicle: saline); 120 % of control (dose: 15.0 mg/kg/injection, schedule: Q01DX009 (ip), vehicle: saline). For the same molecule, the T/C (dose: 30.0 mg/kg/injection, schedule: Q01DX001 (ip), vehicle: saline) was 111 % of control and the T/C (dose: 30.0 mg/kg/injection, schedule: Q01DX009 (ip), vehicle: saline) is 173 % of control.
